How the values were obtained:
[1] = Retention time of the compound at 150 uM by HPLC analysis; assay type: physicochemical
[2] = target: T1, Estrogen receptor (Homo sapiens) (UniProt P03372); assay: Ratio of RBA for DPN to RBA for test compound for displacement of fluormone tracer from full length human recombinant ERalpha relative to estradiol
T1 sequence (whole entry): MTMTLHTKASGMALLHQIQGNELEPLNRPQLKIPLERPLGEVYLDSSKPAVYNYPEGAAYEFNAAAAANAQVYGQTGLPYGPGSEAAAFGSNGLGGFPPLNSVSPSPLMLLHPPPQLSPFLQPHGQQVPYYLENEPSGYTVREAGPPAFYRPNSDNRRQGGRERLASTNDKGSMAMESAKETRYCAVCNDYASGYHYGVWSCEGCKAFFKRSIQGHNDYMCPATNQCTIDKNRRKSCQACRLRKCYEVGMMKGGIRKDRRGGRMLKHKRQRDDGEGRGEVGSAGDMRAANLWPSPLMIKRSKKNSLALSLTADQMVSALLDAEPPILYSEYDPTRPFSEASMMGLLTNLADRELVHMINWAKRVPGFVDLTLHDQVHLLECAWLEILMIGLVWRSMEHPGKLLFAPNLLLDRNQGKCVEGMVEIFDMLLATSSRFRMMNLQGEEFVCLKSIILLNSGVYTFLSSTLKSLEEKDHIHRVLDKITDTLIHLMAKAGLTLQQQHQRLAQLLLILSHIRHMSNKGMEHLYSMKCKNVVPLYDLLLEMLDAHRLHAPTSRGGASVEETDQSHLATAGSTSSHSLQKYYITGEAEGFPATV

Estrogen receptor beta [3] = target: T2, Estrogen receptor beta (Homo sapiens, UniProt Q92731); assay: Ratio of RBA for DPN to RBA for test compound for displacement of fluormone tracer from full length human recombinant ERbeta relative to estradiol
[4] = Drug metabolism in pH 7.4 PBS in absence of H2O2 at 75 uM incubated at 37 degC for 4 hrs by UV spectroscopy
[5] = Drug metabolism in pH 7.4 PBS assessed as H2O2-mediated formation of DPN at 75 uM at 37 degC incubated for 10 mins by UV spectroscopy
[6] = Drug metabolism in pH 7.4 PBS assessed as second order rate constant for H2O2-mediated formation of DPN at 75 uM at 37 degC incubated for over 4 hrs by UV spectroscopy
[7] = Drug metabolism in pH 7.4 PBS assessed as formation of DPN at 150 uM at 37 degC incubated for 1 hr in presence of 5 fold excess H2O2 by HPLC analysis
[8] = Drug metabolism in pH 7.4 PBS assessed as formation of DPN at 150 uM at 37 degC incubated for 1 hr in presence of 5 fold excess TBHP by HPLC analysis
[9] = Drug metabolism in pH 7.4 PBS assessed as formation of DPN at 150 uM at 37 degC incubated for 1 hr in presence of 5 fold excess nitric oxide by HPLC analysis
[10] = Drug metabolism in pH 7.4 PBS assessed as formation of DPN at 150 uM at 37 degC incubated for 1 hr in presence of 5 fold excess hydroxyl radical by HPLC analysis
[11] = Drug metabolism in pH 7.4 PBS assessed as formation of DPN at 150 uM at 37 degC incubated for 1 hr in presence of 5 fold excess superoxide by HPLC analysis relative to untreated control
[12] = Drug metabolism in pH 7.4 PBS assessed as formation of DPN at 150 uM at 37 degC incubated for 1 hr in presence of 5 fold excess hypochlorite by HPLC analysis relative to untreated control
[13] = target: T1, Estrogen receptor (Homo sapiens); assay: Ratio of RBA for Estrone to RBA for test compound for displacement of fluormone tracer from full length human recombinant ERalpha relative to estradiol
Estrogen receptor beta [14] = target: T2, Estrogen receptor beta; assay: Ratio of RBA for Estrone to RBA for test compound for displacement of fluormone tracer from full length human recombinant ERbeta relative to estradiol
[15] = Drug metabolism in pH 7.4 PBS assessed as H2O2-mediated conversion to E1 by measuring second order rate constant incubated at 75 uM at 37 degC for 4 hrs by UV spectroscopy
[16] = Drug metabolism in pH 7.4 PBS assessed as H2O2-mediated conversion to phenol by measuring second order rate constant for disappearance of starting material at 75 uM incubated at 37 degC for 4 hrs by UV spectroscopy
[17] = Drug metabolism in pH 7.4 PBS assessed as H2O2-mediated conversion to E2 incubated at 500 uM at 37 degC for 30 mins by GC-MS analysis
[18] = Drug metabolism in pH 7.4 PBS assessed as H2O2-mediated conversion to E2 by measuring retention time of product at 500 uM incubated at 37 degC for 30 mins by GC-MS analysis; assay type: physicochemical; conditions: buffer, pH 7.4, 0.5 h
[19] = target: T1, Estrogen receptor (Homo sapiens); assay: Ratio of RBA for estradiol RBA for test compound for displacement of fluormone tracer from full length human recombinant ERalpha relative to estradiol
Estrogen receptor beta [20] = target: T2, Estrogen receptor beta; assay: Ratio of RBA for estradiol RBA for test compound for displacement of fluormone tracer from full length human recombinant ERbeta relative to estradiol
Estrogen receptor beta [21] = target: T2, Estrogen receptor beta; assay: Activation of human ERbeta assessed as induction of transcriptional activation incubated for 24 hrs by luciferase reporter gene assay
Estrogen receptor beta [22] = target: T2, Estrogen receptor beta; assay: Activation of human ERbeta assessed as induction of transcriptional activation incubated for 24 hrs in presence of 50 uM H2O2 by luciferase reporter gene assay
Estrogen receptor beta [23] = target: T2, Estrogen receptor beta; assay: Activation of human ERbeta assessed as induction of transcriptional activation incubated for 24 hrs in presence of 100 uM H2O2 by luciferase reporter gene assay

T2 sequence (Q92731 whole entry): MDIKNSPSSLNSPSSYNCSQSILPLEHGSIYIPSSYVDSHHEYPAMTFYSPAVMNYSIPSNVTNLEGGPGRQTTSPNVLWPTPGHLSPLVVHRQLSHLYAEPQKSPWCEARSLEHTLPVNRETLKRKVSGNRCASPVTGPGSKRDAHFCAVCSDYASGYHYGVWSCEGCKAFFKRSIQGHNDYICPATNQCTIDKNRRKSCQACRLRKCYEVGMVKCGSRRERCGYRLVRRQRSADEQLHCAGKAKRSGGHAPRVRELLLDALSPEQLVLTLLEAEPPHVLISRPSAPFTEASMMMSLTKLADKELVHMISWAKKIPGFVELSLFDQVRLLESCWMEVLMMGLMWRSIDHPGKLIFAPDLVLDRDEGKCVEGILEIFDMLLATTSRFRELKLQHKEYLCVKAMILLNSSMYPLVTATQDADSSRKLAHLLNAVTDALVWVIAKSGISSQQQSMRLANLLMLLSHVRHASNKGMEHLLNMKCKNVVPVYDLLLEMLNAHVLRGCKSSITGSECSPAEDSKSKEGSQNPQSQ

## N#CC(Cc1ccc(O)cc1)c1ccc(O)cc1 (centres undefined) [DIARYLPROPIONITRILE]
[1]
  Retention_time: 19 min

## CC1(C)OB(c2ccc(CC(C#N)c3ccc(O)cc3)cc2)OC1(C)C (centres undefined)
[2]
  Ratio: 4.5
Estrogen receptor beta [3]
  Ratio: 5
[4]
  Drug metabolism: Metabolite not detected
[5]
  Drug metabolism: Metabolite detected
[6]
  K: 6.46 M⁻¹ s⁻¹
[1]
  Retention_time: 22 min
[7]
  Drug metabolism: Metabolite detected
[8]
  Drug metabolism: Metabolite not detected
[9]
  Drug metabolism: Metabolite not detected
[10]
  Drug metabolism: Metabolite not detected
[11]
  Drug metabolism: 22%
[12]
  Drug metabolism: 50 to 80%

## CC1(C)OB(c2ccc(C(C#N)Cc3ccc(O)cc3)cc2)OC1(C)C (centres undefined)
[2]
  Ratio: 6
Estrogen receptor beta [3]
  Ratio: 5
[4]
  Drug metabolism: Metabolite not detected
[5]
  Drug metabolism: Metabolite detected
[6]
  K: 5.92 M⁻¹ s⁻¹
[1]
  Retention_time: 23 min
[7]
  Drug metabolism: Metabolite detected
[8]
  Drug metabolism: Metabolite not detected
[9]
  Drug metabolism: Metabolite not detected
[10]
  Drug metabolism: Metabolite not detected
[11]
  Drug metabolism: 22%
[12]
  Drug metabolism: 50 to 80%

## CC1(C)OB(c2ccc3c(c2)CC[C@@H]2[C@@H]3CC[C@]3(C)C(=O)CC[C@@H]23)OC1(C)C
[13]
  Ratio: 6
Estrogen receptor beta [14]
  Ratio: 6
[15]
  K: 4.81 M⁻¹ s⁻¹
[4]
  Drug metabolism: Metabolite not detected

## CC1(C)OB(c2ccc3c(c2)CC[C@@H]2[C@@H]3CC[C@]3(C)[C@@H](O)CC[C@@H]23)OC1(C)C
[16]
  K: 5.57 M⁻¹ s⁻¹
[17]
  Drug metabolism: Metabolite detected
[18]
  Retention_time: 12.5 min
[4]
  Drug metabolism: Metabolite not detected
[19]
  Ratio: 3
Estrogen receptor beta [20]
  Ratio: 3

## CC1(C)OB(c2ccc(CC(C#N)c3ccc(B4OC(C)(C)C(C)(C)O4)cc3)cc2)OC1(C)C (centres undefined)
Estrogen receptor beta [3]
  Ratio: 20
[4]
  Drug metabolism: Metabolite not detected
[5]
  Drug metabolism: Metabolite detected
[6]
  K: 5.14 M⁻¹ s⁻¹
[1]
  Retention_time: 28 min
[7]
  Drug metabolism: Metabolite detected
[8]
  Drug metabolism: Metabolite not detected
[9]
  Drug metabolism: Metabolite not detected
[10]
  Drug metabolism: Metabolite not detected
[11]
  Drug metabolism: 22%
[12]
  Drug metabolism: 50 to 80%
Estrogen receptor beta [21]
  EC50: 470 nM
Estrogen receptor beta [22]
  EC50: 6.1 nM
Estrogen receptor beta [23]
  EC50: 1.2 nM

Source: ChEMBL document CHEMBL4392852, “Synthesis and characterization of hydrogen peroxide activated estrogen receptor beta ligands” (Bioorg Med Chem, 2019)
